# Laboratory results taken from PMC5370183, “Kinetics of the LOV domain of ZEITLUPE determine its circadian function in Arabidopsis” (eLife, 2017).
# How the values were obtained:
# [1] = target: T1, ZEITLUPE LOV domain (ZTL 29-165, ZTL-S) (Arabidopsis thaliana, UniProt Q94BT6); assay: X-ray crystal structure; type: binding; conditions: dark state, 2.5 Å; FMN non-covalently bound next to C82
# T1 construct: gene ADO1; LOV domain, residues 29-165, E. coli, 6xHis or GST tag cleaved by TEV; monomer 16 kDa, homodimer 33 kDa (MALS)
# [2] = target: T2, ZEITLUPE LOV domain (ZTL 29-165, ZTL-S) (Arabidopsis thaliana, UniProt Q94BT6, V48I/G80R); assay: X-ray crystal structure; type: binding; conditions: dark state (5SVV, 2.1 Å) non-covalent; light state (5SVW, 2.3 Å) covalent C4a adduct with C82
# T2 construct: gene ADO1; LOV domain, residues 29-165, E. coli, 6xHis or GST tag cleaved by TEV; monomer 16 kDa, homodimer 33 kDa (MALS)
# T2 sequence (Q94BT6 29-165 V48I/G80R): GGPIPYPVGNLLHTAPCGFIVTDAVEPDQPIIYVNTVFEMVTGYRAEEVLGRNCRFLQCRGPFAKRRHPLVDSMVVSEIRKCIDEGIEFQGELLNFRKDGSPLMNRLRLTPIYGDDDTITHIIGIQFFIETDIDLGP
# T1 sequence (Q94BT6 29-165): as the sequence (Q94BT6 29-165 V48I/G80R) above, with I20V, R52G counted along it
smiles,measurement,setting,value
Cc1cc2nc3c(=O)[nH]c(=O)nc-3n(C[C@H](O)[C@H](O)[C@H](O)COP(=O)(O)O)c2cc1C [FMN],X-ray crystal structure,[1],The helices cradle the photoreactive FMN adjacent to C82 (Eα helix).
same,X-ray crystal structure,[2],Light state crystal structure of V48I:G80R
